Laboratory results taken from ChEMBL document CHEMBL4138149, “Discovery of 1-(3-aryl-4-chlorophenyl)-3-(p-aryl)urea derivatives against breast cancer by inhibiting PI3K/Akt/mTOR and Hedgehog signalings” (Eur J Med Chem, 2017).
Activity calls are given as the source filed them. No cut-off for these calls is given here.

How the values were obtained:
T47D [1] = assay: Cytotoxicity against human T47D cells after 72 hrs by MTT assay; format: functional, cell-based
MCF7 = assay: Cytotoxicity against human MCF7 cells after 72 hrs by MTT assay; format: functional, cell-based; settings: MCF7, 72 h
PC-3 = assay: Cytotoxicity against human PC3 cells after 72 hrs by MTT assay; format: functional, cell-based; settings: PC-3, 72 h
[2] = target: Serine/threonine-protein kinase mTOR (Homo sapiens, UniProt P42345); assay: Inhibition of mTOR (unknown origin) using Ulight-4EBP1 peptide as substrate measured after 1 hr by Lance Ultra assay
[3] = target: Phosphatidylinositol 4,5-bisphosphate 3-kinase catalytic subunit alpha isoform (Homo sapiens) (UniProt P42336); assay: Inhibition of PI3Kalpha (unknown origin) at 50 uM using PIP2 as substrate measured after 1 hr by Kinase-Glo luminescent assay relative to control
MDA-MB-231 [4] = assay: cells; settings: Homo sapiens, MDA-MB-231, 72 h
Description: Cytotoxicity against human MDA-MB-231 cells after 72 hrs by MTT assay

[5] = target: Phosphatidylinositol 4,5-bisphosphate 3-kinase catalytic subunit alpha isoform (Homo sapiens) (UniProt P42336); assay: Inhibition of PI3Kalpha (unknown origin) at 5 uM using PIP2 as substrate measured after 1 hr by Kinase-Glo luminescent assay relative to control
MDA-MB-231 [6] = assay: Inhibition of PI3K/Akt/mTOR signaling in human MDA-MB-231 cells assessed as reduction in phosphorylation of S6K at Thr412 residue at 5 uM measured within 4 hrs by Western blot analysis; format: cell-based
MDA-MB-231 [7] = assay: Inhibition of PI3K/Akt/mTOR signaling in human MDA-MB-231 cells assessed as reduction in phosphorylation of S6K at Thr389 residue at 5 uM measured within 4 hrs by Western blot analysis; format: cell-based
MDA-MB-231 [8] = assay: Inhibition of PI3K/Akt/mTOR signaling in human MDA-MB-231 cells assessed as reduction in AKT phosphorylation at Ser473 residue at 5 uM by Western blot analysis; format: cell-based; settings: TDE = time-dependent effect
MDA-MB-231 [9] = assay: Inhibition of Hedgehog signaling in human MDA-MB-231 cells assessed as reduction in SAG-induced elevation of Gli1 expression at 5 to 10 uM after 48 hrs by Western blot analysis; format: cell-based
T47D [10] = assay: Induction of apoptosis in human T47D cells assessed as live cells at 5 uM after 48 hrs by Annexin-V-FITC/propidium iodide staining based flow cytometric method (reference value: 86.2%); format: functional
T47D [11] = assay: Induction of apoptosis in human T47D cells assessed as early apoptotic cells at 5 uM after 48 hrs by Annexin-V-FITC/propidium iodide staining based flow cytometric method (reference value: 4.49%); format: functional
T47D [12] = assay: Induction of apoptosis in human T47D cells assessed as late apoptotic cells at 5 uM after 48 hrs by Annexin-V-FITC/propidium iodide staining based flow cytometric method (reference value: 9.18%); format: functional
T47D [13] = assay: Induction of apoptosis in human T47D cells assessed as necrotic cells at 5 uM after 48 hrs by Annexin-V-FITC/propidium iodide staining based flow cytometric method (reference value: 0.135%); format: functional
T47D [14] = assay: Induction of apoptosis in human T47D cells assessed as live cells at 10 uM after 48 hrs by Annexin-V-FITC/propidium iodide staining based flow cytometric method (reference value: 86.2%); format: functional
T47D [15] = assay: Induction of apoptosis in human T47D cells assessed as early apoptotic cells at 10 uM after 48 hrs by Annexin-V-FITC/propidium iodide staining based flow cytometric method (reference value: 4.49%); format: functional
T47D [16] = assay: Induction of apoptosis in human T47D cells assessed as late apoptotic cells at 10 uM after 48 hrs by Annexin-V-FITC/propidium iodide staining based flow cytometric method (reference value: 9.18%); format: functional
T47D [17] = assay: Induction of apoptosis in human T47D cells assessed as necrotic cells at 10 uM after 48 hrs by Annexin-V-FITC/propidium iodide staining based flow cytometric method (reference value: 0.135%); format: functional
MDA-MB-231 [18] = assay: Induction of apoptosis in human MDA-MB-231 cells assessed as live cells at 5 uM after 48 hrs by Annexin-V-FITC/propidium iodide staining based flow cytometric method (reference value: 94.3%); format: functional
MDA-MB-231 [19] = assay: Induction of apoptosis in human MDA-MB-231 cells assessed as early apoptotic cells at 5 uM after 48 hrs by Annexin-V-FITC/propidium iodide staining based flow cytometric method (reference value: 0.634%); format: functional
MDA-MB-231 [20] = assay: Induction of apoptosis in human MDA-MB-231 cells assessed as late apoptotic cells at 5 uM after 48 hrs by Annexin-V-FITC/propidium iodide staining based flow cytometric method (reference value: 5%); format: functional
MDA-MB-231 [21] = assay: Induction of apoptosis in human MDA-MB-231 cells assessed as necrotic cells at 5 uM after 48 hrs by Annexin-V-FITC/propidium iodide staining based flow cytometric method (reference value: 0.086%); format: functional
MDA-MB-231 [22] = assay: Induction of apoptosis in human MDA-MB-231 cells assessed as live cells at 10 uM after 48 hrs by Annexin-V-FITC/propidium iodide staining based flow cytometric method (reference value: 94.3%); format: functional
MDA-MB-231 [23] = assay: Induction of apoptosis in human MDA-MB-231 cells assessed as early apoptotic cells at 10 uM after 48 hrs by Annexin-V-FITC/propidium iodide staining based flow cytometric method (reference value: 0.634%); format: functional
MDA-MB-231 [24] = assay: Induction of apoptosis in human MDA-MB-231 cells assessed as late apoptotic cells at 10 uM after 48 hrs by Annexin-V-FITC/propidium iodide staining based flow cytometric method (reference value: 5%); format: functional
MDA-MB-231 [25] = assay: Induction of apoptosis in human MDA-MB-231 cells assessed as necrotic cells at 10 uM after 48 hrs by Annexin-V-FITC/propidium iodide staining based flow cytometric method (reference value: 0.086%); format: functional
MDA-MB-231 [26] = assay: Antimigratory activity against human MDA-MB-231 cells at 5 to 10 uM after 24 hrs by tryphan blue staining based transwell assay; format: functional, cell-based

Chain of Phosphatidylinositol 4,5-bisphosphate 3-kinase catalytic subunit alpha isoform (Homo sapiens) (P42336 whole entry, canonical isoform): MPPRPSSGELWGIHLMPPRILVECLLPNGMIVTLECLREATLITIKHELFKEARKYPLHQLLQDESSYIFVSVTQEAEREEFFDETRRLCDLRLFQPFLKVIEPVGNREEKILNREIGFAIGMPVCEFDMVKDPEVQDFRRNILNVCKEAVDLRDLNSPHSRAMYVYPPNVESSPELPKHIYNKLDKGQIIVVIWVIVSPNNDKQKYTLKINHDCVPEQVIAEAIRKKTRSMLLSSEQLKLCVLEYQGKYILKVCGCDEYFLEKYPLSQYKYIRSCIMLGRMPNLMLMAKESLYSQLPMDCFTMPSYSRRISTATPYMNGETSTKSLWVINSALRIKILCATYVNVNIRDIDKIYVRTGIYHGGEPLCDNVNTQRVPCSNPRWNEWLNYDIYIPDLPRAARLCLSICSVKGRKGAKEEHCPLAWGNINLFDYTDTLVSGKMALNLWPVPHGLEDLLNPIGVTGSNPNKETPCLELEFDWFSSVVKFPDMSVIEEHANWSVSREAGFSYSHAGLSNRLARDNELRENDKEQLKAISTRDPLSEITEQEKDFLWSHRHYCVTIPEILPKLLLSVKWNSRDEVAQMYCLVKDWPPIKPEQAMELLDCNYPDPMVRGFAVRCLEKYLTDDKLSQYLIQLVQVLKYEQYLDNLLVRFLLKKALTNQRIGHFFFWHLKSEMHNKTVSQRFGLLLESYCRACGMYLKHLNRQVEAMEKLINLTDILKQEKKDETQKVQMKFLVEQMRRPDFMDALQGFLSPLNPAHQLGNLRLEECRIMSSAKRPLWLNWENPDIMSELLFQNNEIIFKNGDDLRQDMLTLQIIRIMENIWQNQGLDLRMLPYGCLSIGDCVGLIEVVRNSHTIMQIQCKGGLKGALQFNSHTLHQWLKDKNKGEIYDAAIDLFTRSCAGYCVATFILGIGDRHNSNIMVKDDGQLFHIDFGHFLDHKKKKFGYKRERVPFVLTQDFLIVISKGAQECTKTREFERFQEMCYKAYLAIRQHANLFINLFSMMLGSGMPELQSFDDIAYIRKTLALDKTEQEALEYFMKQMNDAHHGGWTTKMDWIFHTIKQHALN

O=C(Nc1ccc(-c2ccnc(N3CCOCC3)n2)cc1)Nc1ccc(Cl)c(-c2ccsc2)c1 gave an IC50 (T47D [1]) of 22.6 µM.

In the case of O=C(Nc1ccc(-c2ccnc(N3CCOCC3)n2)cc1)Nc1ccc(Cl)c(-c2cccnc2)c1, the IC50 (T47D [1]) is reported as 4.11 µM, the IC50 (MCF7) is reported as 16.8 µM and the IC50 (PC-3) is reported as 11.8 µM. It also gave an IC50 [2] of over 10 µM, an inhibition [3] of 30% and an IC50 (MDA-MB-231 [4]) of 14.5 µM.

O=C(Nc1ccc(-c2cc(N3CCOCC3)nc(N3CCOCC3)n2)cc1)Nc1ccc(Cl)c(-c2cccnc2)c1 showed an IC50 (T47D [1]) of 3.96 µM, an IC50 (MCF7) of 9.15 µM and an IC50 (PC-3) of 15.5 µM. It also gave an IC50 [2] of 0.33 µM, an inhibition [5] of 35.1% and an IC50 (MDA-MB-231 [4]) of 8.49 µM.

For O=C(Nc1ccc(-c2ccnc(N3CCOCC3)n2)cc1)Nc1ccc(Cl)c(-c2ccccc2)c1, the IC50 (T47D [1]) was 44.6 µM.

Compound O=C(Nc1ccc(-c2nc(N3CCOCC3)nc(N3CCOCC3)n2)cc1)Nc1ccc(Cl)c(-c2cccs2)c1 has an IC50 (T47D [1]) of 44.1 µM.

O=C(Nc1ccc(-c2ccnc(N3CCOCC3)n2)cc1)Nc1ccc(Cl)c(-c2ccccn2)c1 gave an IC50 (T47D [1]) of 23.1 µM.

Compound O=C(Nc1ccc(-c2ccnc(N3CCOCC3)n2)cc1)Nc1ccc(Cl)c(-c2cccs2)c1 has an IC50 (T47D [1]) of 24.3 µM.

In the case of CS(=O)(=O)c1ccc(C(=O)Nc2ccc(-c3nc(N4CCOCC4)nc(N4CCOCC4)n3)cc2)c(Cl)c1, the IC50 (T47D [1]) is reported as 17.5 µM.

CS(=O)(=O)c1ccc(C(=O)Nc2ccc(-c3cc(N4CCOCC4)nc(N4CCOCC4)n3)cc2)c(Cl)c1 gave an IC50 (T47D [1]) of 22.3 µM.

O=C(Nc1ccc(-c2cc(N3CCOCC3)nc(N3CCOCC3)n2)cc1)Nc1ccc(Cl)c(-c2ccccn2)c1 showed an IC50 (T47D [1]) of 35.1 µM.

O=C(Nc1ccc(-c2nc(N3CCOCC3)nc(N3CCOCC3)n2)cc1)Nc1ccc(Cl)c(-c2cccnc2)c1 was tested, and the IC50 (T47D [1]) was 9.38 µM, the IC50 (MCF7) was 5.75 µM and the IC50 (PC-3) was 5.37 µM. For the same compound, the IC50 [2] was 0.2 µM, the inhibition [5] was 26.6% and the IC50 (MDA-MB-231 [4]) was 7.82 µM.

Compound O=C(Nc1ccc(-c2ccnc(N3CCOCC3)n2)cc1)Nc1ccc(Cl)c(-c2ccncc2)c1 has an IC50 (T47D [1]) of 16 µM, an IC50 (MCF7) of 19.2 µM and an IC50 (PC-3) of 17.7 µM. The IC50 (MDA-MB-231 [4]) was 18.9 µM.

CS(=O)(=O)c1ccc(C(=O)Nc2ccc(-c3ccnc(N4CCOCC4)n3)cc2)c(Cl)c1 was tested, and the IC50 (T47D [1]) was 25 µM.

Work on O=C(Nc1ccc(-c2nc(N3CCOCC3)nc(N3CCOCC3)n2)cc1)Nc1ccc(Cl)c(-c2ccsc2)c1 yielded an IC50 (T47D [1]) of 23.2 µM.

Compound CS(=O)(=O)c1ccc(C(=O)Nc2ccc(Cl)c(-c3ccccn3)c2)c(Cl)c1 [VISMODEGIB] has an IC50 (T47D [1]) of 41.3 µM, an IC50 (MCF7) of over 50 µM and an IC50 (PC-3) of over 50 µM. The IC50 (MDA-MB-231 [4]) was over 50 µM.

O=C(Nc1ccc(-c2cc(N3CCOCC3)nc(N3CCOCC3)n2)cc1)Nc1ccc(Cl)c(-c2ccccc2)c1 was tested, and the IC50 (T47D [1]) was 15.6 µM.

With O=C(Nc1ccc(-c2nc(N3CCOCC3)nc(N3CCOCC3)n2)cc1)Nc1ccc(Cl)c(-c2ccncc2)c1 the IC50 (T47D [1]) was 7.94 µM, the IC50 (MCF7) was 7.61 µM and the IC50 (PC-3) was 11 µM. The IC50 [2] was 0.18 µM, the inhibition [5] was 16.3% and the inhibition (MDA-MB-231 [6]) was “Active”. For the same compound, the inhibition (MDA-MB-231 [7]) was “Active”, the inhibition (MDA-MB-231 [8]) was “Tde” and the inhibition (MDA-MB-231 [9]) was “Active”. The Activity (T47D [10]) was 80.8%, the Activity (T47D [11]) was 8.49% and the Activity (T47D [12]) was 10.5%. The Activity (T47D [13]) was 0.132%, the Activity (T47D [14]) was 13.9% and the Activity (T47D [15]) was 75.1%. For the same compound, the Activity (T47D [16]) was 10.6%, the Activity (T47D [17]) was 0.347% and the Activity (MDA-MB-231 [18]) was 51.6%. For the same compound, the Activity (MDA-MB-231 [19]) was 18.7%, the Activity (MDA-MB-231 [20]) was 28.6% and the Activity (MDA-MB-231 [21]) was 1.17%. For the same compound, the Activity (MDA-MB-231 [22]) was 7.01%, the Activity (MDA-MB-231 [23]) was 42.5% and the Activity (MDA-MB-231 [24]) was 49.9%. For the same compound, the Activity (MDA-MB-231 [25]) was 0.595%, the Activity (MDA-MB-231 [26]) was “Active” and the IC50 (MDA-MB-231 [4]) was 3.61 µM.

For Nc1cc(C(F)(F)F)c(-c2cc(N3CCOCC3)nc(N3CCOCC3)n2)cn1 [BUPARLISIB], the IC50 (T47D [1]) was 6.92 µM, the IC50 (MCF7) was 11.1 µM and the IC50 (PC-3) was 5.34 µM. It also gave an IC50 (MDA-MB-231 [4]) of 1.88 µM.

In the case of O=C(Nc1ccc(-c2nc(N3CCOCC3)nc(N3CCOCC3)n2)cc1)Nc1ccc(Cl)c(-c2ccccc2)c1, the IC50 (T47D [1]) is reported as 15.4 µM, the IC50 [2] is reported as 3.45 µM and the inhibition [5] is reported as 57.1%.

With O=C(Nc1ccc(-c2cc(N3CCOCC3)nc(N3CCOCC3)n2)cc1)Nc1ccc(Cl)c(-c2cccs2)c1 the IC50 (T47D [1]) was 25.4 µM.

In the case of O=C(Nc1ccc(-c2cc(N3CCOCC3)nc(N3CCOCC3)n2)cc1)Nc1ccc(Cl)c(-c2ccncc2)c1, the IC50 (T47D [1]) is reported as 7.41 µM, the IC50 (MCF7) is reported as 8.2 µM and the IC50 (PC-3) is reported as 9.28 µM. It also gave an IC50 [2] of 0.26 µM, an inhibition [5] of 9.37% and an IC50 (MDA-MB-231 [4]) of 7.32 µM.

O=C(Nc1ccc(-c2cc(N3CCOCC3)nc(N3CCOCC3)n2)cc1)Nc1ccc(Cl)c(-c2ccsc2)c1 showed an IC50 (T47D [1]) of 18.7 µM.

In the case of O=C(Nc1ccc(-c2nc(N3CCOCC3)nc(N3CCOCC3)n2)cc1)Nc1ccc(Cl)c(-c2ccccn2)c1, the IC50 (T47D [1]) is reported as 14.2 µM, the IC50 [2] is reported as 0.09 µM and the inhibition [5] is reported as 6.8%.
